Source: patent publication US20260337190A1, “CRYSTAL FORM OF PYRIDINOPYRIMIDINONE COMPOUND, ACID SALT THEREOF, CRYSTAL FORM OF ACID SALT THEREOF, AND USE” (Wuhan Humanwell Innovative Drug Research and Development …, priority 2022, published 2026)
Entries after “also recorded” stand apart in the source; their conditions may differ.

Columns and labels:
[1] = Human liver microsome stability; type: in vitro ADME
Procedure: The human liver microsome stability test was performed by incubating the compound and human liver microsomes in vitro. First, the compound to be tested was prepared into a 10 mM stock solution in DMSO solvent, and then the compound was diluted to 0.5 mM with acetonitrile. Human liver microsomes (Corning) were diluted with PBS into a microsome/buffer solution, and the solution was used to dilute 0.5 mM compound into a working solution, in which the concentration of the compound was 1.5 μM, and the concentration of human liver microsomes was 0.75 mg/mL. A deep-well plate was taken, 30 μL of the working solution was added per well, and then 15 μL of pre-heated 6 mM NADPH solution was added thereto to initiate a reaction, and the reaction was incubated at 37 °C At 0, 5, 15, 30, and 45 min of the incubation, 135 μL of acetonitrile was added to the corresponding wells to terminate the reaction. After the reaction was terminated with acetonitrile at the last time point of 45 min, the deep-well plate was vortexed for 10 min (600 rpm/min), and then centrifuged for 15 min. After centrifugation, the supernatant was collected, and added with purified water in a ratio of 1:1 to perform LC-MS/MS detection. A ratio of a peak area of compound to a peak area of internal standard at each time point was obtained, and the peak area ratios of the compound at 5, 15, 30, and 45 min were compared with the peak area ratio at 0 min to calculate the remaining percentage of the compound at each time point. T1/2 was calculated by using GraphPad 5 software.

NCI-H1975 tumor = assay: In vivo efficacy on NCI-H1975 non-small cell lung cancer (in combination with osimertinib); design: species or system mice
LOVO tumor = assay: In vivo efficacy on LOVO colorectal cancer; design: species or system mice
Procedure: (§1) After one week of adaptive feeding of mice, LOVO cells in a logarithmic phase were resuspended in serum-free F12K, 5×10^6 LOVO cells were inoculated subcutaneously at the right flank at 100 μL per mouse, and tumor growth was observed regularly. When the tumor grew to an average volume of 150 to 200 mm^3, the mice were randomly divided into a model group and an administration group based on the tumor size and body weight. The tumor size and body weight were measured and recorded before and during the administration. After the treatment, the tumor size in the model group was compared with that in the administration group to determine the efficacy.

Mia Paca-2 tumor = assay: In vivo efficacy on Mia Paca-2 pancreatic cancer (alone or with trametinib); design: species or system mice
Procedure: as §1, with “of mice, Mia Paca-2 cells in” for “of mice, LOVO cells in”, “in serum-free DMEM, and then mixed with Matrigel in a ratio of 1:1. 1×10^7 Mia Paca-2 cells were” for “in serum-free F12K, 5×10^6 LOVO cells were”, “administration group (single drug, in combination with trametinib) based on” for “administration group based on”

[2] = system: ERK phosphorylation level in DLD-1 cells; assay: Inhibition of ERK phosphorylation level in DLD-1 cells (intracellular western blot); type: cell-based; settings: summary statement
Procedure: Intracellular western blot quantitative analysis was used to detect the inhibitory level of compounds on ERK phosphorylation in DLD-1 cells.
DLD-1 cells (ATCC, CCL-221) were seeded in a T75 culture flask at 2.5×10^6 cells/flask, and cultured in a RPMI 1640 medium containing 10% FBS for 2 days. On day 3, the cells were seeded on a 384-well plate, and cultured overnight at 37 °C, 5% CO2. After overnight culture, the plate was added with serially diluted compounds (the final content of DMSO was 0.5%), the negative group was added with DMSO, and incubated in a 37 °C, 5% CO2 incubator.
The cells were fixed, washed once with PBS, treated to disrupt membranes, and blocked at room temperature for 1 h. The blocking solution was removed. The plate was added with primary antibody (CST, Cat. No. #4370S), and incubated overnight at 4 °C The plate was washed 3 times with PBST (PBS solution added with 0.05% Tween-20), and soaked for 2 min each time. The plate was added with secondary antibody (LI-COR, Cat. No. 926-32211), and incubated at room temperature in the dark. The plate was washed 3 times with PBST, and soaked for 2 min each time.
The plate was centrifuged at 1000 rpm for 1 min, scanned on a two-color infrared laser imaging system (Odyssey® CLX) to read the signal.
Relative signal=800-channel signal values/700-channel signal values. […]
IC50 values were calculated using Graphpad 5 software.

[3] = Mouse pharmacokinetic test, oral gavage; type: in vivo, male ICR mice; settings: summary statement; listed as compound of the present disclosure
Procedure: Male ICR mice (20 to 25 g) were used, and fasted overnight. Three mice were taken and orally administered by gavage (10 mg/kg). Blood was collected before the administration, and at 15 min, 30 min, 1 h, 2 h, 4 h, 8 h, and 24 h after the administration. 6,800 g of the blood samples were centrifuged at 2 to 8 °C for 6 min, and plasma was collected and stored at −80 °C The plasma at each time point was taken and added with an acetonitrile solution containing internal standard in 3 to 5 times the amount, vortexed and mixed for 1 min, and centrifuged at 13,000 rpm/min at 4 °C for 10 min. The supernatant was collected, added with water in 3 times the amount, and mixed. An appropriate amount of the mixture was taken for LC-MS/MS analysis. The main pharmacokinetic parameters were analyzed using WinNonlin 7.0 software with non-compartmental model.

remaining at 0.5 h ([1]; human liver microsomes, 30 min, 37 °C, NADPH, read-out: Remaining percentage of compound after incubation for 30 min): 98.7%
hepatic metabolic stability ([1]; summary statement): good hepatic metabolic stability
metabolism in the human body ([1]; summary statement): slow metabolism in the human body
SMILES: Cc1nc(N[C@H](C)c2cccc(S(F)(F)(F)(F)F)c2)c2cn(C3(CF)CC3)c(=O)cc2n1 [compound of formula I, (R)-6-(1-(fluoromethyl)cyclopropyl)-2-methyl-4-((1-(3-(pentafluorosulfanyl)phenyl)ethyl)amino)pyrido[4,3-d]pyrimidin-7(6H)-one]
average tumor volume at the end of the treatment vs single-drug group of osimertinib (NCI-H1975 tumor; compound I-1 7.5 mg/kg BID or 25 mg/kg BID + osimertinib 1 mg/kg QD): significantly reduced, and the difference is statistically significant
synergistic effect of combined administration (NCI-H1975 tumor; compound I-1 25 mg/kg BID + osimertinib 1 mg/kg QD): synergistic effect
anti-tumor efficacy of combination with osimertinib vs single-drug administration (NCI-H1975 tumor; in combination with osimertinib): significantly better than that of single-drug administration
inhibitory effect on LOVO tumor tissue growth vs control compound II (LOVO tumor; comparison with control compound II): better than that of the control compound II
inhibitory effect on LOVO tumor tissue growth (LOVO tumor; mouse, in vivo): significant inhibitory effect
inhibitory effect on Mia Paca-2 tumor growth (Mia Paca-2 tumor; alone or in combination with trametinib): significant inhibitory effect
combined use with trametinib vs single use, Mia Paca-2 tumor growth (Mia Paca-2 tumor; in combination with trametinib): more effective than the single use
inhibitory effect on the ERK phosphorylation level in DLD-1 cells [2]: significant inhibitory effect
pharmacokinetic properties / exposure [3]: high exposure; also recorded: excellent pharmacokinetic properties
